Test results: patent publication US20070032556A1, “Aromatic polyamine derivative” (priority 2003, published 2007)
Where two headings read alike, the source gives them in different places.

Test: solubility of the monomers or polymer in the coating solvent
Assay type: physicochemical
Description: In 100 g of mesitylene were dissolved 2.48 g (8 mmol) of 1,3,5-adamantanetricarboxylic acid trimethyl ester prepared in Synthesis Example 1 and 6.42 g (12 mmol) of 3,3′-diaminobenzidinetetracyclohexanoimine[N,N′,N″,N′″-tetracyclohexylidene-3,4,3′,4′-biphenyltetramine] prepared in Example 5 at room temperature in a nitrogen atmosphere and thereby yielded a coating composition having a monomer concentration of 8.2 percent by weight. The coating composition was passed through a filter with a pore size of 0.1 micron and was applied to an 8-inch silicon wafer by spin coating. This was heated at 300° C. in a nitrogen atmosphere for thirty minutes, was further heated at 400° C. for thirty minutes, and thereby yielded a film. The infrared absorption spectrum of the resulting polymer film was determined to find that the target crosslinked polybenzimidazole film was formed as shown in the infrared absorption spectral data in FIG. 1. The film has a film thickness of 300 nm.
The procedure of Example 15 was repeated, except for using the same amounts as in Example 15 of 1,3,5-adamantanetricarboxylic acid and 3,3′-diaminobenzidine instead of 1,3,5-adamantanetricarboxylic acid trimethyl ester and N,N′,N″,N′″-tetracyclohexylidene-3,4,3′,4′-biphenyltetramine, respectively, to find the solubility in the solvent (mesitylene) was low. Consequently, a coating composition having a monomer concentration of 1.2 percent by weight was prepared by the procedure of Example 15, except for using 0.54 g (2 mmol) of 1,3,5-adamantanetricarboxylic acid and 0.64 g (3 mmol) of 3,3′-diaminobenzidine. By using this coating composition, a polymer film was prepared by the procedure of […], and the infrared absorption spectrum of the polymer film was determined to find that the target crosslinked polybenzimidazole film was formed. The film has a film thickness of less than 20 nm.
A coating composition having a monomer concentration of 14.7 percent by weight was prepared by dissolving 4.42 g (12 mmol) of 1,3,5,7-adamantanetetracarboxylic acid tetramethyl ester and 12.83 g (24 mmol) of 3,3′-diaminobenzidinetetracyclohexanoimine[N,N′,N″,N′″-tetracyclohexylidene-3,4,3′,4′-biphenyltetramine] prepared according to Example 5 in 100 g of methyl isobutyl ketone (MIBK) at room temperature in a nitrogen atmosphere. The coating composition was passed through a filter with a pore size of 0.1 micron and was applied to an 8-inch silicon wafer by spin coating. This was heated at 300° C. in a nitrogen atmosphere for thirty minutes and further heated at 400° C. for thirty minutes to yield a film. The infrared absorption spectrum of the resulting polymer film was determined to find that the target crosslinked polybenzimidazole film was formed. The film has a film thickness of 400 nm.
The procedure of Example 16 was repeated, except for using the same amounts as in Example 16 of 1,3,5,7-adamantanetetracarboxylic acid and 3,3′-diaminobenzidine instead of 1,3,5,7-adamantanetetracarboxylic acid tetramethyl ester and N,N′,N″,N′″-tetracyclohexylidene-3,4,3′,4′-biphenyltetramine, respectively, to find that the solubility in the solvent (methyl isobutyl ketone: MIBK) was low. Consequently, a coating composition having a monomer concentration of 1.5 percent by weight was prepared by the procedure of Example 16, except for using 0.62 g (2 mmol) of 1,3,5,7-adamantanetetracarboxylic acid and 0.86 g (4 mmol) of 3,3′-diaminobenzidine. By using this coating composition, a polymer film was prepared by the procedure of Example 16, and the infrared absorption spectrum of the film was determined to find that the target crosslinked polybenzimidazole film was formed. The film has a film thickness of less than 20 nm. […]

O=C(O)C12CC3(C(=O)O)CC(C(=O)O)(C1)CC(C(=O)O)(C2)C3 [1,3,5,7-adamantanetetracarboxylic acid]
solubility in the solvent (methyl isobutyl ketone: MIBK): low

O=C(O)C12CC3CC(C(=O)O)(C1)CC(C(=O)O)(C3)C2 [1,3,5-adamantanetricarboxylic acid]
solubility in the solvent (mesitylene): low

Nc1ccc(-c2ccc(N)c(O)c2)cc1O [3,3′-dihydroxybenzidine]
solubility in the solvent (propylene glycol monomethyl ether: PGME) (same amounts as in Example 19 in 100 g PGME, room temperature, nitrogen atmosphere, together with 1,3,5-adamantanetricarboxylic acid): low

Nc1ccc(-c2ccc(N)c(N)c2)cc1N [3,3′-diaminobenzidine]
solubility in the solvent (mesitylene) (same amounts as in Example 15 in 100 g mesitylene, room temperature, nitrogen atmosphere, acid and amine monomer dissolved together): low
solubility in the solvent (methyl isobutyl ketone: MIBK) (same amounts as in Example 16 in 100 g MIBK, room temperature, nitrogen atmosphere, acid and amine monomer dissolved together): low
solubility in the solvent (dioxane) (same amounts as in Example 17 in 100 g dioxane, room temperature, nitrogen atmosphere, together with 1,3,5-adamantanetricarboxylic acid): low
